# Assays:
# MAIT cells = assay: mBSA-induced arthritis in wild type mice treated with Ac6FP or PBS; type: in vivo; details: wild type male mice, intraperitoneal twice a week
# Excerpt: Arthritis was induced by intra-articular injection of methylated bovine serum albumin (mBSA) in MR1^−/− (depleted in MAIT cells) and wild type C57BL/6 mice, previously immunized with mBSA. We included 9 mice in each group, only females, which were 6 to 8 weeks old. Mice were daily evaluated for signs of joint inflammation, assessed by measuring tarsal thickness and scored on a scale of 0-4, where 0=no change, 1=local swelling and redness of digits, 2=mild swelling and redness, 3=severe swelling and redness, 4=necrosis. Mice were sacrificed on day 8, and the paws were separated, fixed with 4% paraformaldehyde and decalcified for histopathological assessment. All mice developed arthritis, with a peak of inflammation at day 1.
# Arthritis was induced by intra-articular injection of methylated bovine serum albumin (mBSA) in wild type mice, treated with Acetyl-6-formylpterin (Ac6FP), a non-activating ligand of MAIT cells or PBS, previously immunized with mBSA. Ac6FP or PBS were injected twice a week in intraperitoneal. We included 6 wild type mice in each group, only males, which were 8 weeks old. Mice were daily evaluated as described previously. All mice developed arthritis, with a peak of inflammation at day 1.
# Values are the mean+/−SEM of 6 mice in each group. Test: Student T test. Ac6FP: Acetyl-6-formylpterin. AUC: Area Under Curve. […]
# rheumatoid arthritis = details: cited from earlier work
SMILES,clinical score (scale 0-4) compared to PBS group (MAIT cells; daily evaluation),"area under curve (AUC) of clinical score, median (MAIT cells; n=6, vs. 5.5 in PBS group, p=0.07)",patients reaching remission states (rheumatoid arthritis; RA patients at 6-12 months),"patients reaching low disease activity states (rheumatoid arthritis; early RA patients, with or without corticosteroids)"
"CC(=O)Nc1nc2ncc(C=O)nc2c(=O)[nH]1 [Ac6FP, Acetyl-6-formylpterin]",lower clinical score,3,,
"CN(Cc1cnc2nc(N)nc(N)c2n1)c1ccc(C(=O)N[C@@H](CCC(=O)O)C(=O)O)cc1 [MTX, methotrexate]",,,10-20%,25-50%

# Reference: patent publication US20260069594A1, “USE OF AN AGENT CAPABLE OF INHIBITING THE ACTIVATION OF MAIT CELLS FOR THE TREATMENT OF RHEUMATOID ARTHRITIS” (INSTITUT NATIONAL DE LA SANTÉ ET DE LA RECHERCHE MÉDICALE, priority 2022, published 2026)
